From US20020025942A1, “NOVEL TAU/NEUROFILAMENT PROTEIN KINASES” (priority 1991, published 2002)
Values joined by “and” are separate entries in the source; they are usually repeats but may differ in a detail not shown here. Equal entries are not always repeated.

How the values were obtained:
Format in all cases: biochemical, bovine
[1] = tested on: KSP-phosphorylating kinases; experiment: Immuno-dotblot assay (SMI-31/SMI-34 epitope reconstitution on dephosphorylated NF-triplet) with crude 35-45% ammonium sulfate fraction; details: crude enzyme
Description: The preferred method for the immunoassay for detecting KSP-phosphorylating kinases is as follows. […] After incubation at 37° C. for 18 hours, assays were diluted to 100 μl with 10 mM PBS, pH 7.2, and aliquots of 50 μl were spotted on nitrocellulose (0.22 μm, Schleicher and Schull). […] Blots were incubated with SMI mAbs for at least 2 hours. The blots were then washed five times. […] All incubations and washes were at room temperature. Incubations were sealed in plastic bags with 50 μl of solution/cm membrane. The foregoing procedure involved parameters that were optimized as follows. […] This activity was NF-specific, since the corresponding control immunoassay which lacked dephosphorylated native NF-triplet was almost negative for this fraction. […] The assays were performed with 0.5 mM Mg^2+ (unless indicated otherwise). […] Immuno-dotblot-assays were conducted to determine the optimal Mg^2+ and ATP concentrations using the SMI-31 and SMI-34 antibodies. […] Control assays were without NFs using 0.4 micrograms crude enzyme.

PK36 = experiment: 32P kinase assay of purified PK36 with dephosphorylated NF-M as second substrate
Description: (§1) An alternative method for assaying the phosphorylating activity of the kinases was by ^32P assays. Radioactive assays in the same buffer system as for immunoassays contained 5 μg of HTP-purified native NF-triplet as substrate (3μg of substrate proteins other than NFs) and 150-250 cpm/pmole gamma-^32P-ATP. Incubation'times were 15 minutes at 37° C. for activities up to about 1 pmole/min/assay, since the assay responses were linear within these time intervals. Assays were stopped by cooling on ice, addition of 20 μl 25 mM EDTA and immediate transfer of the mixture onto glass filters (Whatman GF/A) wetted with 10% TCA/2% sodium pyrophosphate (PPA). The glass filters were washed twice for 1 hour and once for at least 3 hours in 10% TCA/2% PPA and finally in ethanol and were air-dried. Radioactivity was assessed by scintillation counting (Beckman LS 230) with 5 ml “Liquiscint” (National Diagnostics) for 20 minutes. Assays were routinely carried out in triplicate except for some duplicate assays in a few explicitly mentioned cases; a control assay lacking NFs was subtracted from the mean value.
(§2) The ATP dependence and inhibition of the activities of PK40 and PK36 were determined at 2 mM Mg^2+ with soluble dephosphorylated NF-M as second substrate to avoid uncertainties arising from the aggregation state of NF-triplet in suspension. The optima were at 0.5-1 mM ATP for both kinases. Apparent Km values for ATP of both kinases were estimated from Woolf-Hanes plots (Dixon and Webb, 1979) for a range of ATP concentrations sufficiently below the onset of inhibition. […] The apparent Km of PK36 was approximately 50 μM.

PK40 = target: T1, PK40 (Bos taurus, UniProt P46196); experiment: 32P kinase assay of purified PK40 with dephosphorylated NF-M as second substrate
T1 construct: from tissue; host or cells: bovine brain
Description: as §1, §2

[2] = 2 mM Mg2+, 5 mM ATP, % of control (2 mM Mg2+, 1 mM ATP)
[3] = ATP in relatively small excess over Mg2+
[4] = 5 mM Mg2+ over 1 mM ATP or 5 mM over 5 mM ATP
[5] = 5 mM Mg2+, 1 mM ATP, % of control
[6] = 5 mM Mg2+, 5 mM ATP, % of control

T1 sequence (P46196 2-360 limits assumed): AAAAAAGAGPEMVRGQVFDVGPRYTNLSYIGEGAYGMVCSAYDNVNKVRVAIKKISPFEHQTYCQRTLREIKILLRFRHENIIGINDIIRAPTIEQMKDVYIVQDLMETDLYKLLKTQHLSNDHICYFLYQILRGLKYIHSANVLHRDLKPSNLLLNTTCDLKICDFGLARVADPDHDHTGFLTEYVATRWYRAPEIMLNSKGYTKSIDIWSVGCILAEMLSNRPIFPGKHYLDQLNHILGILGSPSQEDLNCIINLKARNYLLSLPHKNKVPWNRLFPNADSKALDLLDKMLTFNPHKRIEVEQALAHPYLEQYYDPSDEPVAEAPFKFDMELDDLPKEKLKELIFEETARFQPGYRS

[Mn+2] [Mn^2+]
effectiveness relative to Mg2+ [1]: about twice as effective as Mg^2+

[Cl-].[Na+] [NaCl, sodium chloride]
relative activity [%] of PK36 (PK36; NaCl 150 mM, % of control): 40 ± 0.8%
relative activity [%] of PK40 (PK40; NaCl 150 mM, % of control): 27 ± 1.8%
concentration that diminished the assay response ([1]; attributed to ionic strength): greater than 20 mM

Nc1ncnc2c1ncn2[C@@H]1O[C@H](COP(=O)(O)OP(=O)(O)OP(=O)(O)O)[C@@H](O)[C@H]1O [ATP]
ATP optimum of PK36 activity (PK36; 2 mM Mg2+): 0.5 to 1 mM
relative activity [%] of PK36 (PK36; [2]): 14% and 14 ± 0.5%
Km (PK36; 2 mM Mg2+, Woolf-Hanes plots, read-out: apparent Km for ATP of PK36): ~50 µM
inhibition of PK36 by excess ATP (PK36; [3]): strongly inhibited
ATP optimum of PK40 activity (PK40; 2 mM Mg2+): 0.5 to 1 mM
relative activity [%] of PK40 (PK40; [2]): 7% and 7.2 ± 6.9%
Km (PK40; 2 mM Mg2+, Woolf-Hanes plots, mean ±S.D. of three determinations, read-out: apparent Km for ATP of PK40): 93 ± 12 µM
inhibition of PK40 by excess ATP (PK40; [3]): strongly inhibited
effect on kinase activity ([1]; ATP 5 mM): inhibited the kinase activity

Nc1nc2c(ncn2[C@@H]2O[C@H](COP(=O)(O)OP(=O)(O)OP(=O)(O)O)[C@@H](O)[C@H]2O)c(=O)[nH]1 [GTP]
ability to substitute for ATP [1]: could not substitute for ATP

[Mg+2] [Mg^2, magnesium]
inhibition of PK36 with excess Mg2+ (PK36; [4]): significantly reduced
relative activity [%] of PK36 (PK36; [5]): 40 ± 0.2%
relative activity [%] of PK36 (PK36; [6]): 38 ± 2.2%
inhibition of PK40 with excess Mg2+ (PK40; [4]): little or no inhibition
relative activity [%] of PK40 (PK40; [5]): 107 ± 3.5%
relative activity [%] of PK40 (PK40; [6]): 78 ± 7.1%
